Source: patent US8642654B2, “Hydroxybutyrate ester and medical use thereof” (ISIS Innovation Limited, priority 2011, dated 2014)
“Also recorded” adds a separate entry of the source. Marks after values point to notes of the source that are not given here.

Experiments:
[1] = Blood levels of (3R)-hydroxybutyrate after oral ingestion; assay type: in vivo; settings: ingested orally
[2] = test system: melanocyte-stimulating hormone receptor 4 (MC4R); assay: Neuropeptide levels in sectioned rat brain by antibody techniques: MC4R; assay type: in vivo; settings: rat hypothalamus, 14 days ketone diet
Protocol: (§1) In a 14-day study, Wistar rats weighing about 250 g were randomized to one of three diet groups (n=6 rats/group) and administered either a carbohydrate (“starch”) diet, a normal human (“fat”) diet or a ketone ester diet, in which the ketone ester used was the ketone monoester (3R)-hydroxybutyl (3R)-hydroxybutyrate diet (i.e. the compound of the invention). The three diets were eaten in pair fed meals for 3 hours per day. The composition of the diets expressed in terms of g/100 g are summarised in Table 5 and the compositions expressed in terms of % of calories are summarised in Table 6. After 14 days of feeding with the fat, carbohydrate or ketone ester diet, the levels of various neuropeptides known to be associated with decreased food intake and decreased appetite (“anorexigenic” peptides) were surveyed in the paraventricular nucleus (PVN) area of the hypothalamus and in the hippocampus of the rat brain. The neuropeptide levels were measured using standard antibody techniques performed on sectioned brains of the rats. The results are shown in the micrographs of FIGS. 3 to 9. The peptides measured were Brain Derived Neurotropic Factor (BDNF), melanocyte-stimulating hormone receptor 4 (MC4R), and Cocaine-and-Amphetamine Responsive Transcript (CART). […]

[3] = 14-day pair fed meal diets: food consumption and weight gain (Example 5); assay type: in vivo, Wistar rats; settings: rats, 14-day study
Protocol: (§2) In a 14-day study, Wistar rats weighing about 250 g were randomized to one of three diet groups (n=6 rats/group) and administered either a carbohydrate (“starch”) diet, a normal human (“fat”) diet or a ketone ester diet, in which the ketone ester used was the ketone monoester (3R)-hydroxybutyl (3R)-hydroxybutyrate diet (i.e. the compound of the invention). The three diets were eaten in pair fed meals for 3 hours per day. The composition of the diets expressed in terms of g/100 g are summarised in Table 5 and the compositions expressed in terms of % of calories are summarised in Table 6.

[4] = test system: free nucleotide ratios and concentrations in the brain; assay: Calculated free nucleotide ratios and concentrations in freeze blown brain after 14 days of diet; assay type: in vivo, Wistar rats
Protocol: as §2
After the rats were fed on the diets for 14 days, the ratios of free nucleotide and the free nucleotide concentrations were determined. Measurements were performed on the freeze blown brain and metabolite ratios of the rats calculated as previously described (Veech, R. L. et al, J. Biol. Chem. 254:6538-47, 1979). The values in Table 8 are given as means±SEM (n=6 to 8). Cytosolic pH was assumed to be 7.2.

[5] = In vivo testing, meal-fed diets (Example 3); settings: meal-fed rats, n=8 per group
Source text: Example 2 was repeated using the same foods as shown in Table 1 but where the rats were meal-fed. […] The daily body weight (in grams per rat per day) was plotted against time for rats in each of the three diet groups over the first six days of the test. One-way analysis of variance with Tukey-Kramer multiple comparison test was used (n=8 per group, **p<0.001). […] The body weight of rats in the group fed the carbohydrate diet remained high throughout the feeding process. […] The daily food intake (in grams per rat per day) was plotted against time for rats in each of the three diet groups over the first seven days of the test. Again, one-way analysis of variance with Tukey-Kramer multiple comparison test was used (n=8 per group, ***p<0.001).

[6] = test system: Krebs cycle and CoA intermediates in the brain; assay: Brain Krebs cycle and CoA intermediates after 14 days of diet; assay type: in vivo, Wistar rats; settings: rat brain
Protocol: In a 14-day study, Wistar rats weighing about 250 g were randomized to one of three diet groups (n=6 rats/group) and administered either a carbohydrate (“starch”) diet, a normal human (“fat”) diet or a ketone ester diet, in which the ketone ester used was the ketone monoester (3R)-hydroxybutyl (3R)-hydroxybutyrate diet (i.e. the compound of the invention). The three diets were eaten in pair fed meals for 3 hours per day. The composition of the diets expressed in terms of g/100 g are summarised in Table 5 and the compositions expressed in terms of % of calories are summarised in Table 6. After eating the 3 diets in pair fed meals for 3 hours per day for 14 days, the levels of various Krebs cycle and CoA intermediates in the brain were measured enzymatically and by mass spectrometry using standard techniques. […] Malonyl CoA is a metabolite known to be associated with decreased food intake; it is known to decrease appetite (Wolfgang, M. J. and Lane, M. D. (2006) J. Biol. Chem. 281, 37265-37269). […] The values in Table 7 are means, in μmoles/g wet weight, ±SEM with n=6 to 8. CoA's are given in nmol/g wet weight.

[7] = 28-day study, isonitrogenous and isocaloric diets (Example 4); assay type: in vivo, Wistar rats; settings: for total amount of weight gained compared with CHOD and NHD groups: 28-day study; for feed intake during days 22 to 29: KD; for body weight on day 28: KD group
Source text: In a 28-day study, male and female Wistar rats weighing approximately 350 g were randomized to one of three diet groups (n=10 males and 10 females/group) and administered either a carbohydrate diet (CHOD), a normal human diet (NHD), or a ketone diet (KD). The diets were isonitrogenous and isocaloric, differing only in their relative amounts of carbohydrate, fat, and ketones. In the KD, the ketone used was the ketone monoester (3R)-hydroxybutyl (3R)-hydroxybutyrate diet (i.e. the compound of the invention). In the KD, approximately ⅓ of the energy was derived from the ketone ester, while in the NHD and CHOD, ⅓ of the energy was derived from palmitate and starch, respectively.

[8] = In vivo testing, calorie-controlled diets, 66 days (Example 2); parameters: species or system Wistar rats
Protocol: Young adult male Wistar rats (starting weight 70 g) (Harlan UK Limited) (n=50) were housed at approximately 20° C. on a 12h:12h reverse light:dark photoperiod. Rats were fed standard laboratory chow (Chow) (SDS, Essex, UK) prior to the starting the experimental diets: (a) normal “Western” diet (Western) in which 34% of kilocalories came from added palmitate (n=20), (b) high-carbohydrate (CHO) in which 70% of kilocalories came from added corn starch (n=10) or (c) (3R)-hydroxybutyl (3R)-hydroxybutyrate diet (monoester) in which 30% of kilocalories came from (3R)-hydroxybutyl (3R)-hydroxybutyrate (n=20). The macronutrient compositions of the three diets are shown below. All diets contained the same energy in kCal/g but had different macronutrients. Rats were individually housed one week prior to the start of the experiments, so that they were accustomed to living in a solitary environment by the time the study started. They consumed standard laboratory chow ad libitum until they were placed on their experimental diet. Rats fed the Western and carbohydrate diets were fed the same number of calories as those consumed by the monoester-fed rats the previous day. All rats were fed for 66 days. After this period the rat body, heart and fat pad weights were determined.

[9] = test system: Brain Derived Neurotropic Factor (BDNF); assay: Neuropeptide levels in sectioned rat brain by antibody techniques: BDNF; assay type: in vivo; settings: rat hypothalamus, ketone diet
Protocol: as §1

[10] = test system: Cocaine-and-Amphetamine Responsive Transcript (CART); assay: Neuropeptide levels in sectioned rat brain by antibody techniques: CART; assay type: in vivo; settings: 14 days ketone diet
Protocol: as §1

[11] = rat brain, 14 days ketone ester diet, mean ± SEM
[12] = rat brain, 14 days ketone ester diet, mean ± SEM, p < 0.05 vs starch and vs fat
[13] = 14 days ketone ester diet, mean ± SEM
[14] = rats, monoester diet, 66 days, n = 20

What does the source list for `C[C@@H](O)CCOC(=O)C[C@@H](C)O` [Monoester, (3R)-hydroxybutyl (3R)-hydroxybutyrate]?
blood levels of (3R)-hydroxybutyrate [1]: measurably raised; MC4R positive cell bodies in pm and mpd regions of the PVN, compared to fat diet (FIGS. 4 and 5) [2]: significantly higher density; also recorded: more MC4R activity; also recorded: Significantly greater numbers; also recorded: significantly denser area; food consumption compared with starch or fat diets [3]: consume less food; weight gain compared with starch or fat diets [3]: gain less weight; brain phosphorylation potential compared with carbohydrate and fat diets ([4]; after 14 days of diet): significantly higher; ΔG′ of ATP hydrolysis compared with carbohydrate and fat diets ([4]; after 14 days of diet): significantly higher; EhCoQ/CoQH2 from Fum/Succ [4, 11]: 28.9 ± 0.6 mV; Free [ADP] cytosol from PCr/Cr [4, 11]: 0.027 ± 0.001 µM/g; Free [AMP] cytosol from Kmyokinase [4, 11]: 0.0004 ± 0.00003 µM/g; Free [Mg^2+] from [Cit]/[Isocit] [4, 11]: 1.5 ± 0.13 mM; Free [NAD^+]/[NADH] mitochochondria from αKGxNH4^+/Glut [4, 11]: 0.80 ± 0.17; Free [NAD^+]/[NADPH] cytosol from αKGxCO2/IsoCit [4, 11]: 0.026 ± 0.003; Free [NAD^+]/[NADH] cytosol from Lactate/Pyruvate ([4]; rat brain, 14 days ketone ester diet, mean ± SEM, cytosolic pH assumed 7.2): 357 ± 27; Phosphorylation Potential from Kg + g (Eqn 1) [4, 12]: 38,100 ± 3,390 ^a, b M^−1; ΔG′ ATP [4, 12]: −59.6 ± 0.2 ^a, b kJ/mol; daily food intake compared with carbohydrate and Western diets (FIG. 2) ([5]; first seven days): ate less food; also recorded: consistently reduced; daily body weight compared with carbohydrate and Western diets (FIG. 1) ([5]; first six days): Significantly reduced; also recorded: lost more weight; malonyl CoA levels in the brain compared with other diets ([6]; 14 days): higher; Acetyl CoA [6, 13]: 6.43 ± 0.53 µM; Fumarate [6, 13]: 0.0745 ± 0.0058 μmoles/g wet weight; Isocitrate [6, 13]: 0.0093 ± 0.008 μmoles/g wet weight; L-Malate [6, 13]: 0.181 ± 0.013 μmoles/g wet weight; Succinate [6, 13]: 0.0864 ± 0.0033 μmoles/g wet weight; Succinyl CoA [6, 13]: 0.910 ± 0.207 µM; α-ketoglutarate [6, 13]: 0.140 ± 0.008 μmoles/g wet weight; Calc Oxaloacetate ([6]; 14 days ketone ester diet, mean ± SEM, calculated): 0.0026 ± 0.0004 μmoles/g wet weight; Citrate ([6]; 14 days ketone ester diet, mean ± SEM, n=6 to 8): 0.222 ± 0.010 μmoles/g wet weight; Malonyl CoA ([6]; 14 days ketone ester diet, mean ± SEM, p < 0.05 between ketone ester and starch): 1.26 ± 0.13 ^a μM; total amount of weight gained compared with CHOD and NHD groups ([7]; female rats): significantly less; feed intake during days 22 to 29 ([7]; female rats): 175 ± 12 g; body weight on day 28 ([7]; female rats): 240 ± 13 g; total amount of weight gained compared with CHOD and NHD groups ([7]; male rats): significantly less; feed intake during days 22 to 29 ([7]; male rats): 239 ± 17 g; body weight on day 28 ([7]; male rats): 390 ± 26 g; fat pad weight compared with Western or carbohydrate diet ([8]; end of the 66-day test): significantly lower; fat to body weight compared with other diets ([8]; end of the 66-day test): significantly lower; Final body weight ([8]; rats, monoester diet (30% of kilocalories), calorie-controlled, 66 days, n = 20): 213 ± 5 g; Heart to body weight [8, 14]: 0.29 ± 0.01%; Heart weight [8, 14]: 0.64 ± 0.02 g; Epididymal fat ([8]; rats, monoester diet, 66 days, n = 20, *P < 0.05): 1.48 ± 0.2* g; Epididymal fat to body weight ([8]; rats, monoester diet, 66 days, n = 20, *P < 0.05, in % (unit assumed)): 0.69 ± 0.1*; BDNF-positive cell bodies in the paraventricular nucleus (PVN), compared to fat and carbohydrate diets (FIG. 3) [9]: significantly more; also recorded: more BDNF; also recorded: significantly greater number; CART-positive cell bodies in VMH, ARC and ME areas of the hypothalamus (FIG. 7) [10]: highest numbers; CART positive cell bodies in the PVN, compared to fat and carbohydrate diets (FIGS. 6, 8, 9) ([10]; rat hypothalamus): highest level; also recorded: more CART; also recorded: significantly greater number; also recorded: highest density
